Reference: ChEMBL document CHEMBL1155732, “Anti-AIDS agents. 46. Anti-HIV activity of harman, an anti-HIV principle from Symplocos setchuensis, and its derivatives” (J Nat Prod, 2001)

Assays:
H9 = assay: Cytotoxicity against human H9 cells; format: cell-based
[1] = system: Human immunodeficiency virus 1; assay: Antiviral activity against HIV1 in human H9 cells assessed as inhibition of viral replication; format: functional, organism-based
[2] = Therapeutic index, ratio of IC50 for human H9 cells to EC50 for HIV1; format: cell-based; settings: for selectivity ratio: H9 cells, read-out: Ratio IC50/EC50; for Ratio IC50/EC50: h9
[3] = Human immunodeficiency virus 1, H9, read-out: EC50

EC50 ([1]; h9)	Compound	IC50 (H9; Homo sapiens, H9)	EC50 [1, 3]	selectivity ratio [2]	IC50 (H9; h9)	EC50 ([1]; h9, read-out: EC50)	Ratio IC50/EC50 [2]
	CCn1c2cc(OC)ccc2c2ccnc(C)c21	8.5 µM	0.35 µM	24.2			
	Br.COc1cc2[nH]c3c(C)nccc3c2cc1Br				5.9 µM	0.22 µM	26.8
	COc1ccc2c(c1)[nH]c1c(C)[n+](C)ccc12.[I-]	49.6 µM	8.6 µM				5.8
Not Active	COc1ccc2c(c1)[nH]c1c(/C=C/c3ccc([N+](=O)[O-])cc3)nccc12	15.4 µM					
	CCC[n+]1ccc2c([nH]c3cc(OC)ccc32)c1C.[I-]	55.4 µM	9.6 µM				5.8
	COc1cc2[nH]c3c(C)nccc3c2cc1Br				74 µM	13.2 µM	5.6
Not Active	CCCCCCCCCCCCCCCCOc1ccc2c(c1)[nH]c1c(C)nccc12	42.7 µM					
	CCOc1ccc2c(c1)[nH]c1c(C)nccc12	25.9 µM	6.5 µM				4
Not Active	Cc1cc(O)n2c(n1)nc1ccccc12	118 µM					
Not Active	CCCCCCCCCCOc1ccc2c(c1)[nH]c1c(C)nccc12	5.9 µM					
	CC1=NCCc2c1[nH]c1ccccc21	110 µM	32 µM				3.4
	CC(=O)Oc1ccc2c(c1)[nH]c1c(C)nccc12	107 µM	17.3 µM				6.2
	COc1ccc2c3c([nH]c2c1)C(C)N(N=O)CC3 (stereo not given)	56.5 µM	7.1 µM	8			
	CCCCn1c2cc(OC)ccc2c2ccnc(C)c21	7.8 µM	0.037 µM	210			
	COc1ccc2c3ccn(C)c(C)c-3nc2c1	70.9 µM					15.8
	COS(=O)(=O)O.Cc1nccc2c1[nH]c1ccccc12				77.5 µM	10.3 µM	7.5
	COc1ccc2c3ccnc(C)c3n(C)c2c1	10.1 µM	1.1 µM	9.2			
Not Active	Cc1nccc2c1[nH]c1cc(OC(=O)C34CCC(C)(C(=O)O3)C4(C)C)ccc12 (stereo not given)	58.9 µM					
	CCCn1c2cc(OC)ccc2c2cc[n+](C)c(C)c21.[Br-]	53.2 µM	23.8 µM				2.2
Not Active	CCCCCCCCC1NC(C(=O)O)Cc2c1[nH]c1ccccc21 (stereo not given)	60.4 µM					
	COc1cc(C[C@H]2COC(=O)[C@@H]2Cc2ccc(OC(C)=O)c(OC)c2)ccc1OC(C)=O	49.3 µM	6.9 µM	7.1			
Not Active	COc1cc([C@@H]2OC[C@@H]3[C@H]2CO[C@H]3c2ccc(O)c(OC)c2)ccc1O [(+)-PINORESINOL]	67 µM					
	Cc1nccc2c1[nH]c1ccccc12 [HARMAN]	112 µM	10.7 µM	10.4			
	COc1ccc2c(c1)[nH]c1c(C)nccc12 [HARMINE]	26.4 µM	0.52 µM				50.8
	Cc1[nH]ccc2c1[nH]c1cc(=O)ccc12 [HARMOL]	108 µM	11.1 µM				9.7
Not Active	COc1cc([C@H]2c3cc(O)c(OC)cc3C[C@@H](CO)[C@@H]2CO)ccc1O [ISOLARICIRESINOL]	> 277 µM					
	COc1cc(C[C@H]2COC(=O)[C@@H]2Cc2ccc(O)c(OC)c2)ccc1O [MATAIRESINOL]	21.9 µM	2 µM	11			
Not Active	COc1cc(C[C@H]2COC(=O)[C@@H]2Cc2ccc(O[C@@H]3O[C@H](CO)[C@@H](O)[C@H](O)[C@H]3O)c(OC)c2)ccc1O [MATAIRESINOSIDE]	> 192 µM					
	c1ccc2c(c1)[nH]c1cnccc12 [NORHARMANE]	142 µM	44.1 µM				3.2

Compound	EC50 ([1]; h9)	IC50 (H9; Homo sapiens, H9)	EC50 [1, 3]	selectivity ratio [2]	IC50 (H9; h9)	EC50 ([1]; h9, read-out: EC50)	Ratio IC50/EC50 [2]
Cc1nccc2c1[nH]c1cc(OC(C)C)ccc12	Not Active	86.7 µM					
CCCCCCOc1ccc2c(c1)[nH]c1c(C)nccc12	Not Active	8.2 µM					
Br.CC1=NCCc2c1[nH]c1cc(O)ccc21	Not Active	97.1 µM					
CC1=NCCc2c1[nH]c1cc(O)ccc21.Cl [HARMALOL HYDROCHLORIDE]	Not Active				87.1 µM		
